Experimental data published in ChEMBL document CHEMBL5360581, “Discovery of a novel dual functional phenylpyrazole-styryl hybrid that induces apoptotic and autophagic cell death in bladder cancer cells” (Eur J Med Chem, 2023).
The source made the active and inactive calls. The calls are words filed in the database; no cut-off is given here.

Legend:
SW-620 [1] = experiment: Antiproliferative activity against human SW620 cells assessed as reduction in cell viability at 20 uM measured for 72 hrs by MTT assay; type: functional, cell-based
SW-620 [2] = experiment: Cytotoxicity against human SW620 cells assessed inhibition of cell growth incubated for 72 hrs by MTT assay; type: functional, cell-based; conditions: SW-620, 72 h
HT-1080 = experiment: Cytotoxicity against human HT-1080 cells assessed inhibition of cell growth incubated for 72 hrs by MTT assay; type: functional, cell-based; conditions: HT-1080, 72 h
MCF7 = experiment: Cytotoxicity against human MCF7 cells assessed inhibition of cell growth incubated for 72 hrs by MTT assay; type: functional, cell-based; conditions: MCF7, 72 h
[3] = Selectivity index, ratio of IC50 for cytotoxicity against human NHDF cells to IC50 for cytotoxicity against human A549 cells; type: toxicity, cell-based; conditions: NHDF cells and A549 cells, read-out: Ratio IC50
[4] = Selectivity index, ratio of IC50 for cytotoxicity against human NHDF cells to IC50 for cytotoxicity against human HT-1080 cells
[5] = Selectivity index, ratio of IC50 for cytotoxicity against human NHDF cells to IC50 for cytotoxicity against human MCF7 cells; type: toxicity, cell-based; conditions: NHDF cells and MCF7 cells, read-out: Ratio IC50
EJ-28 [6] = experiment: Induction of morphological changes in human EJ-28 cells assessed as intracellular vacuolization at 7.5 uM incubated for 24 to 72 hrs by microscopic analysis; type: functional, cell-based; conditions: time 24-72 hrs
SV-HUC-1 = experiment: Induction of morphological changes in human SV-HUC-1 cells at 7.5 uM incubated for 24 to 72 hrs by microscopic analysis; type: functional, cell-based; conditions: time 24-72 hrs
[7] = Cytotoxicity against human SV-HUC-1 cells assessed as reduction in cell viability at 7.5 uM incubated for 72 hrs by MTT assay; type: toxicity, cell-based; conditions: sv-huc-1, 72 h
EJ-28 [8] = experiment: Induction of cell cycle arrest in human EJ-28 cells assessed as accumulation of cells at sub-G0/G1 phase at 2.5 uM incubated for 48 hrs by propidium iodide staining based flow cytometry (reference value: 48%); type: functional
EJ-28 [9] = experiment: Induction of cell cycle arrest in human EJ-28 cells assessed as accumulation of cells at sub-G0/G1 phase at 10 uM incubated for 48 hrs by propidium iodide staining based flow cytometry (reference value: 48%); type: functional
EJ-28 [10] = experiment: Induction of cell cycle arrest in human EJ-28 cells assessed as accumulation of cells at S phase at 1.25 uM incubated for 48 hrs by propidium iodide staining based flow cytometry (reference value: 30%); type: functional
EJ-28 [11] = experiment: Induction of cell cycle arrest in human EJ-28 cells assessed as accumulation of cells at G2/M phase at 1.25 uM incubated for 48 hrs by propidium iodide staining based flow cytometry (reference value: 20%); type: functional
EJ-28 [12] = experiment: Induction of cell cycle arrest in human EJ-28 cells assessed as accumulation of cells at G2/M phase at 10 uM incubated for 48 hrs by propidium iodide staining based flow cytometry (reference value: 20%); type: functional
EJ-28 [13] = experiment: Induction of apoptosis in human EJ-28 cells at 1.25 to 10 uM by AnnexinV-FITC/propidium iodide staining based flow cytometry analysis; type: functional, cell-based; conditions: dose 1.25-10 µM, time 24-72 hrs, TDE = time-dependent effect
EJ-28 [14] = experiment: Induction of apoptosis in human EJ-28 cells incubated for 24 to 72 hrs by AnnexinV-FITC/propidium iodide staining based flow cytometry analysis; type: functional, cell-based; conditions: dose 1.25-10 µM, time 24-72 hrs
EJ-28 [15] = experiment: Induction of apoptosis in human EJ-28 cells assessed as downregulation of procaspase-7 expression incubated for 24 to 72 hrs by Western blotting analysis; type: functional, cell-based; conditions: time 24-72 hrs
EJ-28 [16] = experiment: Induction of apoptosis in human EJ-28 cells assessed as upregulation of PARP expression incubated for 24 hrs by Western blotting analysis; type: functional, cell-based
EJ-28 [17] = experiment: Induction of apoptosis in human EJ-28 cells assessed as upregulation of Bcl-2 expression incubated for 24 hrs by Western blotting analysis; type: functional, cell-based
EJ-28 [18] = experiment: Induction of apoptosis in human EJ-28 cells assessed as upregulation of Mcl-1 expression incubated for 24 hrs by Western blotting analysis; type: functional, cell-based
EJ-28 [19] = experiment: Induction of apoptosis in human EJ-28 cells assessed as upregulation of phosphorylated Bcl-2 level incubated for 24 to 72 hrs by Western blotting analysis; type: functional, cell-based; conditions: time 24-72 hrs
EJ-28 [20] = experiment: Induction of apoptosis in human EJ-28 cells assessed as upregulation of phosphorylated […] level incubated for 24 to 72 hrs by Western blotting analysis; type: functional, cell-based; conditions: time 24-72 hrs
EJ-28 [21] = experiment: Induction of apoptosis in human EJ-28 cells assessed as upregulation of Bcl-xL expression incubated for 24 hrs by Western blotting analysis; type: functional, cell-based
EJ-28 [22] = experiment: Induction of apoptosis in human EJ-28 cells assessed as upregulation of cleaved caspases-8 expression by Western blotting analysis; type: functional, cell-based; conditions: time 24-72 hrs
EJ-28 [23] = experiment: Induction of apoptosis in human EJ-28 cells assessed as upregulation of Bak expression incubated for 24 hrs by Western blotting analysis; type: functional, cell-based
EJ-28 [24] = experiment: Induction of apoptosis in human EJ-28 cells assessed as upregulation of Bax expression incubated for 24 hrs by Western blotting analysis; type: functional, cell-based
EJ-28 [25] = experiment: Induction of autophagy in human EJ-28 cells assessed as increase in green fluorescence intensity incubated for 24 hrs by flow cytometry analysis; type: functional, cell-based; conditions: dose 5-12.5 µM
EJ-28 [26] = experiment: Induction of autophagy in human EJ-28 cells assessed as autophagic flux at 5 to 12.5 uM incubated for 36 to 48 hrs by flow cytometry analysis; type: functional, cell-based; conditions: dose 5-12.5 µM, time 36-48 hrs
EJ-28 [27] = experiment: Induction of autophagy in human EJ-28 cells assessed as upregulation of Atg12 expression at 5 to 12.5 uM incubated for 24 to 72 hrs by Western blot analysis; type: functional, cell-based; conditions: dose 5-12.5 µM, time 24-72 hrs
EJ-28 [28] = experiment: Induction of autophagy in human EJ-28 cells assessed as upregulation of AKT expression at 5 to 12.5 uM incubated for 48 to 72 hrs by Western blot analysis; type: functional, cell-based; conditions: dose 5-12.5 µM, time 48-72 hrs
EJ-28 [29] = experiment: Anticancer activity against human EJ-28 cells cultured as 3D spheroids assessed as decrease in spheroid size at 5 to 20 uM measured upto 5 days by fluorescence microscopic analysis; type: functional, cell-based; conditions: dose 5-20 µM, time <= 5.0 day
[30] = Toxicity in Zebrafish embryo assessed as mortality at 12.5 to 50 uM administered for 4 hrs post fertilization and measured after 72 hours post fertilization; design: species or system Danio rerio; conditions: in vivo, dose 12.5-50 µM
[31] = Toxicity in Zebrafish embryo assessed as lack of pigmentation at 12.5 uM administered for 4 hrs post fertilization and measured after 3 days post fertilization; design: species or system Danio rerio; conditions: in vivo, 72 h, time 3 day
[32] = Toxicity in Zebrafish embryo assessed as mild bradycardia at 50 uM administered for 4 hrs post fertilization and measured after 3 days post fertilization; design: species or system Danio rerio; conditions: in vivo, 72 h, time 3 day
[33] = Toxicity in Zebrafish embryo assessed as mild bradycardia at 12.5 to 25 uM administered for 4 hrs post fertilization and measured after 3 days post fertilization; design: species or system Danio rerio; conditions: in vivo, 72 h, dose 12.5-25 µM, time 3 day
[34] = Toxicity in Zebrafish embryo assessed as mortality at 12.5 to 50 uM administered for 4 hrs post fertilization and measured after 6 days post fertilization; design: species or system Danio rerio; conditions: in vivo, 144 h, dose 12.5-50 µM, time 6 day

## O=[N+]([O-])c1cccc(/C=C/c2cc(-c3cc(Cl)ccc3O)n(-c3ccccc3)n2)c1
SW-620 [1]
  Activity: Active
SW-620 [2]
  IC50: 10 µM
HT-1080
  IC50: 13 µM
MCF7
  IC50: 8.8 µM
[3]
  selectivity ratio: 2.6
[4]
  Ratio IC50: 2.6
[5]
  selectivity ratio: 2.6
EJ-28 [6]
  Activity: Active
SV-HUC-1
  Activity: inactive
[7]
  Activity: Non-Toxic
EJ-28 [8]
  Activity: 57%
EJ-28 [9]
  Activity: 58%
EJ-28 [10]
  Activity: 27%
EJ-28 [11]
  Activity: 18%
EJ-28 [12]
  Activity: 17%
EJ-28 [13]
  Activity: Tde
EJ-28 [14]
  Activity: Dose-Dependent Effect
EJ-28 [15]
  Activity: Active
EJ-28 [16]
  Activity: Active
EJ-28 [17]
  Activity: Active
EJ-28 [18]
  Activity: Active
EJ-28 [19]
  Activity: Active
EJ-28 [20]
  Activity: Active
EJ-28 [21]
  Activity: inactive
EJ-28 [22]
  Activity: Dose-Dependent Effect
EJ-28 [23]
  Activity: Active
EJ-28 [24]
  Activity: inactive
EJ-28 [25]
  Activity: Dose-Dependent Effect
EJ-28 [26]
  Activity: Active
EJ-28 [27]
  Activity: Active
EJ-28 [28]
  Activity: Active
EJ-28 [29]
  Activity: Active
[30]
  Activity: Non-Toxic
[31]
  Activity: Non-Toxic
[32]
  Activity: Toxic
[33]
  Activity: Non-Toxic
[34]
  Activity: Non-Toxic
